# Test results: patent publication US6350776B1, “Method of treating proliferative disease with lycopene and alpha-tocopherol” (priority 1999, dated 2002)
# What was measured:
# [1] = system: Prostate cancer cells (DU-145); test: Cell proliferation assay (cell count), DU-145; type: cell-based, human; conditions: for potentiation of the anti-proliferative effect of lycopene: DU-145, 50 μM of the compound with 1 μM lycopene (FIG. 3)
# Method: (§1) Culture media and antibiotics were from Gibco (Grand Island, N.Y., USA). Fetal calf serum was from PAA Labor (Linz, Austria), Human prostate carcinoma, androgen insensitive, cell lines DU-145 and PC-3, colon carcinoma cell line Caco-2, hepatoma cell line HepG2, and rat aortic smooth muscle cell line A7r5 were from American Type Culture Collection (Rockville, Md., USA). DU-146 cells were grown in minimum essential medium (EM), PC-3 cells in F-12K medium, both containing antibiotics and 10% fetal calf serum (FCS). Caco-2 cells were grown in MEM containing 20% FCS. HepG2 cells were grown in MEM containing 10% FCS, and A7r5 cells were grown in DMEM containing 10% FCS. Cell proliferation was assayed using two methods, cell count and thymidine incorporation: Cell count. Cells were seeded into 6-multiwell plates (20,000 cells/well). When cells reached approximately 50% confluence, the indicated concentrations of the compounds were added. THF was added to control cells to account for the effect of the solvent in the compound solutions. Cells were washed, trypsinized, resuspended and counted in duplicate at the indicated times by trypan blue dye exclusion with a hemocytometer. […] The values in Table 1 are expressed as percent of inhibition of proliferation as compared to proliferation of control cells treated with solvent alone. Prostate cancer cells (DU-145), hepatoma cells (HepG2), colon carcinoma cells (Caco-2) and rat aortic smooth muscle cells (A7r5) were treated with different concentrations of lycopene as indicated and 50 μM alpha-tocopherol for 24 hours. […] Proliferation was assessed as indicated in the Materials and Methods. Data are means±SD of five experiments in duplicate.
# hepatoma cells (HepG2) = test: Cell proliferation assay (thymidine incorporation), HepG2; type: cell-based, human; conditions: 50 μM alpha-tocopherol, lycopene 0 μM, 24 hours, vs solvent control
# Method: (§2) Culture media and antibiotics were from Gibco (Grand Island, N.Y., USA). Fetal calf serum was from PAA Labor (Linz, Austria), Human prostate carcinoma, androgen insensitive, cell lines DU-145 and PC-3, colon carcinoma cell line Caco-2, hepatoma cell line HepG2, and rat aortic smooth muscle cell line A7r5 were from American Type Culture Collection (Rockville, Md., USA). DU-146 cells were grown in minimum essential medium (EM), PC-3 cells in F-12K medium, both containing antibiotics and 10% fetal calf serum (FCS). Caco-2 cells were grown in MEM containing 20% FCS. HepG2 cells were grown in MEM containing 10% FCS, and A7r5 cells were grown in DMEM containing 10% FCS.
# (§3) Cell proliferation was assayed using two methods, cell count and thymidine incorporation:
# (§4) Thymidine incorporation. Colon carcinoma cells (Caco-2) and hepatoma cells (HepG2) seeded into 6 multiwell plates (30,000 cells/well) after treatment were pulsed with [^3H] thymidine (0.5 μCi per well) for two hours. […] The radioactivity incorporated into the acid-insoluble material was determined in a liquid scintillation analyzer.
# (§5) The values in Table 1 are expressed as percent of inhibition of proliferation as compared to proliferation of control cells treated with solvent alone. […] Proliferation was assessed as indicated in the Materials and Methods. […]
# [2] = system: colon carcinoma cells (Caco-2); test: Cell proliferation assay (thymidine incorporation), Caco-2; type: cell-based, human; conditions: 50 μM alpha-tocopherol, lycopene 0 μM, 24 hours, vs solvent control
# Method: as §2, §3, §4, §5
# [3] = system: rat aortic smooth muscle cells (A7r5); test: Cell proliferation assay (cell count), A7r5; type: cell-based; conditions: 50 μM alpha-tocopherol, lycopene 0 μM, 24 hours, vs solvent control
# Method: as §1, with “alone.” for “alone. Prostate cancer cells (DU-145), hepatoma cells (HepG2), colon carcinoma cells (Caco-2) and rat aortic smooth muscle cells (A7r5) were treated with different concentrations of lycopene as indicated and 50 μM alpha-tocopherol for 24 hours.”, “Data are means±SD of five experiments in duplicate.” left out
# [4] = system: prostate carcinoma cell proliferation; conditions: in vitro studies, background; cited from earlier work
compound,measurement,setting,value
"Cc1c(C)c2c(c(C)c1O)CCC(C)(CCCC(C)CCCC(C)CCCC(C)C)O2 (racemic) [Alpha-Tocopherol, DL-alpha-tocopherol]",percent of inhibition of proliferation,"[1]; DU 145, 50 μM alpha-tocopherol, lycopene 0 μM, 24 hours, vs solvent control",40 ± 6%
same,potentiation of the anti-proliferative effect of lycopene,[1],potentiates the anti-proliferative effect of lycopene
same,percent of inhibition of proliferation,hepatoma cells (HepG2),5 ± 1%
same,percent of inhibition of proliferation,[2],25 ± 3%
same,percent of inhibition of proliferation,[3],40 ± 5%
"Cc1cc(O)c(C)c2c1O[C@](C)(CCC[C@H](C)CCC[C@H](C)CCCC(C)C)CC2 (racemic) [β-tocopherol, DL-β-tocopherol]",potentiation of the anti-proliferative effect of lycopene,[1],this effect is specific to alpha-tocopherol as compared to other anti-oxidants
CC(C)=CCC/C(C)=C/C=C/C(C)=C/C=C/C(C)=C/C=C/C=C(C)/C=C/C=C(C)/C=C/C=C(\C)CCC=C(C)C [lycopene],concentrations with inhibitory effect on prostate carcinoma cell proliferation,[4],≥ 50 µM
"O=C1O[C@H]([C@@H](O)CO)C(O)=C1O [ascorbic acid, L-ascorbic acid]",potentiation of the anti-proliferative effect of lycopene,[1],this effect is specific to alpha-tocopherol as compared to other anti-oxidants
CC(C)(Sc1cc(C(C)(C)C)c(O)c(C(C)(C)C)c1)Sc1cc(C(C)(C)C)c(O)c(C(C)(C)C)c1 [probucol],potentiation of the anti-proliferative effect of lycopene,[1],this effect is specific to alpha-tocopherol as compared to other anti-oxidants
